Source: patent US7098215B2, “Nitrogenous compounds and antiviral drugs containing the same” (Kureha Chemical Industry Co., Ltd., priority 2000, dated 2006)

Tested on: HIV-1IIIB infected MT-4 cells
Assay: Anti-HIV activity: protection of HIV-1IIIB infected MT-4 cells, MTT method
Type: cell-based
Settings: MOI 0.01, culture for 5 days, concentration inhibiting 50% of cytotoxicity due to HIV infection
Experimental: HIV-1IIIB infected MT-4 cells were added to 96-well microtiter plates (3.0×10^4/well, MOI (Multiplicity of infection): 0.01), together with test compounds at different concentrations immediately after the infection. After culture for 5 days in a carbon dioxide incubator at 37° C., the number of surviving cells was counted by MTT (tetrazolium) method (Pawels et al., J. Virol. Methods, 20, 309-321, 1988).

SMILES	EC50
C[C@H](NC(=O)[C@H](CCCNC1CCCc2cccnc21)NC(=O)c1ccc(CNCc2ccccn2)cc1)c1cccc2ccccc12 (stereo partly drawn) [Compound No. 91, (2S)-2-(4-(N-2-picolylaminomethyl)benzoyl)amino-5-(5,6,7,8-tetrahydroquinolin-8-yl)aminovaleric acid (1′S)-1′-(1-naphthyl)ethylamide]	138 nM
Cn1cccc1CNCCC[C@H](NC(=O)c1ccc(CNCc2ccccn2)cc1)C(=O)NCc1cccc2ccccc12 [Compound No. 5, (S)-2-(4-(N-2-picolylaminomethyl)benzoylamino)-5-((1-methylpyrrol-2-ylmethyl)amino)valeric acid 1-naphthalenemethylamide]	804 nM
N=C(N)NCCC[C@H](NC(=O)c1ccc(CNCc2ncc[nH]2)cc1)C(=O)NCc1cccc2ccccc12 [Compound No. 53, N^α-(4-(imidazol-2-ylmethyl)aminomethylbenzoyl)-L-arginine 1-naphthalenemethylamide]	150 nM
C[C@H](NC(=O)[C@H](CCCNC1=NCCCN1)NC(=O)c1ccc(CNCc2ncc[nH]2)cc1)c1cccc2ccccc12 [Compound No. 112, (S)-2-(4-((N-imidazol-2-ylmethyl)aminomethyl)benzoyl)amino-5-(3,4,5,6-tetrahydropyrimidine-2-yl)aminovaleric acid (1′S)-1′-(1-naphthyl)ethylamide]	880 nM
O=C(N[C@@H](CCNCc1ccccn1)C(=O)NCc1cccc2ccccc12)c1ccc(CNCc2ccccn2)cc1 [Compound No. 61, (S)-2-(4-(N-2-picolylamino)methylbenzoylamino)-4-(N-2-picolylamino)butyric acid 1-naphthalenemethylamide]	2620 nM
Cn1cccc1CNCCC[C@H](NC(=O)c1ccc(CNCc2nccn2C)cc1)C(=O)NCc1cccc2ccccc12 [Compound No. 30, (S)-2-(4-((1-methylimidazol-2-ylmethyl)aminomethyl)benzoylamino)-5-((1-methylpyrrol-2-ylmethyl)amino)valeric acid 1-naphthalenemethylamide]	662 nM
O=C(N[C@@H](CCCNC1CCCc2cccnc21)C(=O)NCc1cccc2ccccc12)c1ccc(CNC2CCCc3cccnc32)cc1 (stereo partly drawn) [Compound No. 64, (2S)-2-(4-((5,6,7,8-tetrahydroquinolin-8-yl)aminomethyl)benzoylamino)-5-((5,6,7,8-tetrahydroquinolin-8-yl)amino)valeric acid 1-naphthalenemethylamide]	114 nM
C[C@H](NC(=O)[C@H](CCCNC1CCCc2cccnc21)NC(=O)c1ccc(CNCc2ccccn2)c2ccccc12)c1cccc2ccccc12 (stereo partly drawn) [Compound No. 85, (2S)-2-(4-(N-2-picolylaminomethyl)naphthoyl)amino-5-(5,6,7,8-tetrahydroquinolin-8-yl)aminovaleric acid (1′S)-1′-(1-naphthyl)ethylamide]	29 nM
C[C@H](NC(=O)[C@H](CCCNC1=NCCN1)NC(=O)c1ccc(CNCc2ncc[nH]2)cc1)c1cccc2ccccc12 [Compound No. 110, (S)-2-(4-((N-imidazol-2-ylmethyl)aminomethyl)benzoyl)amino-5-(4,5-dihydroimidazol-2-yl)aminovaleric acid (1′S)-1′-(1-naphthyl)ethylamide]	344 nM
C[C@H](NC(=O)[C@H](CCCNC1CCCc2cccnc21)NC(=O)c1ccc(CNCc2ccccn2)nc1)c1cccc2ccccc12 (stereo partly drawn) [Compound No. 83, (2S)-2-(2-(N-2-picolylaminomethyl)pyridin-5-ylcarbonyl)amino-5-(5,6,7,8-tetrahydroquinolin-8-yl)aminovaleric acid (1′S)-1′-(1-naphthyl)ethylamide]	121 nM
O=C(N[C@@H](CCCNCc1ncc[nH]1)C(=O)NCc1cccc2ccccc12)c1ccc(CNCc2ncc[nH]2)cc1 [Compound No. 21, (S)-2-(4-((imidazol-2-ylmethyl)aminomethyl)benzoylamino)-5-((imidazol-2-ylmethyl)amino)valeric acid 1-naphthalenemethylamide]	828 nM
